“And” between values parts separate entries of the source, which are not always exact repeats. Equal values may be shown once.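 Five concentrations, 48 hours, 96-well plates. The concentration for 50% growth inhibition is given as GI50. TGI is the concentration that stops growth completely.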
Tests used:
Assay in all cases: DTP human tumour cell line panel, 48 h
[1] = system: 786-0 renal
[2] = system: BT-549 breast
[3] = system: DU-145 prostate
[4] = system: HCT-116 colon
[5] = system: LOX IMVI melanoma
[6] = system: MCF7 breast
[7] = system: OVCAR-8 ovarian
[8] = system: PC-3 prostate
[9] = system: SK-MEL-2 melanoma
[10] = system: UACC-62 melanoma

Structure (SMILES)	GI50 [1]	TGI [1]	GI50 [2]	TGI [2]	GI50 [3]	TGI [3]	GI50 [4]	TGI [4]	GI50 [5]	TGI [5]	GI50 [6]	TGI [6]	GI50 [7]	TGI [7]	GI50 [8]	TGI [8]	GI50 [9]	TGI [9]	GI50 [10]	TGI [10]
CC(C)c1ccc2c(N=Nc3ccc(S(N)(=O)=O)cc3)c(O)[nH]c2c1	12.6 µM	> 25 µM	8.76 µM	> 16.4 µM	12.5 µM	> 25 µM	11 µM	> 25 µM	9.01 µM	> 25 µM	> 14.7 µM	> 25 µM	10.3 µM	> 20.1 µM	> 17.1 µM	> 25 µM	> 13.1 µM	> 21.6 µM	> 25 µM	> 25 µM
CCOCCc1c(O)nc(SC)[nH]c1=O	> 100 µM	> 100 µM	> 100 µM	> 100 µM	> 100 µM	> 100 µM	> 100 µM	> 100 µM	> 100 µM	> 100 µM	> 100 µM	> 100 µM	> 100 µM	> 100 µM	> 100 µM	> 100 µM	> 100 µM	> 100 µM	> 100 µM	> 100 µM
O=C(CSc1nc2ccc([N+](=O)[O-])cc2[nH]1)Nc1cccc(Cl)c1	3.02 µM	14.1 µM	2.72 µM	10.8 µM	3.68 µM	18.4 µM	2.81 µM	11.7 µM	3.05 µM	13 µM	2.41 µM	10.5 µM	3.02 µM	> 39.1 µM	2.63 µM	16.1 µM	2 µM	5.82 µM	1.59 µM	10.3 µM
O=C(/C=C/c1ccccn1)c1ccccc1O	1.75 µM	3.14 µM	2.98 µM	9.71 µM	2.31 µM	5.69 µM	1.85 µM	3.75 µM	1.85 µM	4.43 µM	2.47 µM	10.4 µM	3.34 µM	12.2 µM	2.92 µM	8.29 µM	2.31 µM	4.88 µM	1.82 µM	3.87 µM
C/C(=N\Nc1ccc2ccccc2n1)c1ccccc1O		> 100 µM		> 100 µM		> 100 µM		> 100 µM		> 100 µM		> 100 µM		> 100 µM		> 100 µM		> 100 µM		> 100 µM
COc1ccc(-c2cc(-c3ccc(O)cc3)nc3nc(=S)[nH]c(N)c23)cc1	22.8 µM	56.6 µM	12.4 µM	32.7 µM	12.1 µM	35.3 µM	15.4 µM	31.3 µM	12 µM	30.3 µM	12 µM	35.6 µM	16.1 µM	43.1 µM	15.8 µM	43.7 µM	18.4 µM	41.2 µM	14.7 µM	30.3 µM
COC(=O)NNc1c([N+](=O)[O-])cnn(-c2ccccc2)c1=O		7.39 µM		3.21 µM		16.9 µM		3.9 µM		3.2 µM		18 µM		3.75 µM		3.21 µM		11.5 µM		5.15 µM
O=S(=O)(O)c1ccc(Cl)cc1.[Cd]	22.5 µM	50.2 µM	1.94 µM	3.9 µM	67.3 µM	> 100 µM	> 100 µM	> 100 µM	> 100 µM	> 100 µM	34.6 µM	> 100 µM	> 100 µM	> 100 µM	25.2 µM	66.3 µM	19.2 µM	40.4 µM	13.8 µM	28 µM
O=C1CSC(=S)N1c1ccc(F)cc1F		> 100 µM		> 100 µM		> 100 µM		> 100 µM		> 100 µM		51.5 µM		> 100 µM		> 100 µM		> 100 µM		> 100 µM
CS(=O)(=O)N1CCN(Cc2cc3nc(-c4cccc5[nH]ncc45)nc(N4CCOCC4)c3s2)CC1	0.281 µM	2.46 µM	0.271 µM and 0.231 µM	> 100 µM	0.61 µM and 0.427 µM	> 100 µM	1.72 µM and 0.494 µM	> 100 µM	0.456 µM and 0.32 µM	> 100 µM	0.0766 µM and 0.083 µM	> 100 µM	0.789 µM and 0.594 µM	> 100 µM	0.218 µM and 0.26 µM	> 100 µM	1.27 µM and 0.325 µM	> 100 µM		0.244 µM
COC1OCC(OS(=O)(=O)c2ccc(C)cc2)C(OC(=O)c2ccccc2)C1OC(=O)c1ccccc1 (centres undefined)	5.13 µM	> 100 µM	> 100 µM	> 100 µM	19.7 µM	> 100 µM	3.45 µM	> 100 µM	5.05 µM	> 100 µM	3.01 µM	> 100 µM	> 100 µM	> 100 µM	9.01 µM	> 100 µM	5.72 µM	> 100 µM	3.48 µM	> 100 µM
CC1(C)Cc2cccc(OCC(O)CN3CCN(c4ccc(F)cc4)CC3)c2O1 (centres undefined)	5.66 µM	15.7 µM	17.3 µM	39.8 µM	24.1 µM	> 50 µM	7.34 µM	15 µM	23.8 µM	> 50 µM	13.4 µM	49.7 µM	18.2 µM	> 50 µM	14 µM	> 50 µM	27 µM	> 50 µM	11.6 µM	> 50 µM
O=C(O)c1cc(N/C=C2\C(=O)c3ccccc3OC2O)ccc1O (centres undefined)	30.8 µg/mL	57.7 µg/mL	15 µg/mL	71.8 µg/mL	18.9 µg/mL	59 µg/mL	19.8 µg/mL	51 µg/mL	24.7 µg/mL	80.9 µg/mL	24.1 µg/mL	115 µg/mL	27.4 µg/mL	> 150 µg/mL	29.4 µg/mL	120 µg/mL	30.6 µg/mL	68.7 µg/mL	15.6 µg/mL	62.8 µg/mL

Source: PubChem BioAssay (NCI)
